{"source": "patent US20150258106A1", "about": "“METHODS FOR ACUTE AND LONG-TERM TREATMENT OF SUBSTANCE ABUSE” (DEMERX, INC., priority 2014, published 2015)", "key": {"[1]": {"system": "healthy, drug-free male volunteers", "assay": "Pupillometry (pupillary miosis) in healthy volunteers", "assay_type": "in vivo, human", "protocol": "Pulse oximetry and capnography data were collected continuously using a GE Carescape B650 monitoring system from 2 hours prior to dosing and until six hours after dosing, and thereafter at 12, 24, 48 and 72 hours post-dosing. […] Pupillary miosis was assessed by pupillometry.\n(§1) Summary statistics (means, standard deviations, and coefficients of variation) were determined for each dose group for safety laboratory test data, ECG and pharmacokinetic parameters, and pharmacodynamic variables. Categorical variables were analysed using counts and percentages. Dose-proportionality of AUC and Cmax was assessed using linear regression. The effect of dose on pharmacodynamic parameter values over time was assessed using two-factor analysis of variance (ANOVA). Pairwise comparisons (with Tukey-Kramer adjustment) between each dose group to the placebo were conducted at each time point using the least squares estimates obtained from the ANOVA, using SAS Proc Mixed (SAS ver 6.0)."}, "[2]": {"system": "healthy, drug-free male volunteers", "assay": "Cold pressor test (analgesic effect) in healthy volunteers", "assay_type": "in vivo, human", "protocol": "as §1\nAnalgesic effect was assessed based on duration of hand immersion in ice water and on visual analog scale (VAS) pain scores upon hand removal from the water bath.\nSafety and tolerability of noribogaine were tested in the group of volunteers from Example 1. […] Safety evaluations included clinical monitoring, recording of adverse events (AEs), safety laboratory tests, vital signs, ECG telemetry from −2 h to 6 h after dosing, and 12-lead electrocardiograms (ECGs) up to 216 hours post-dosing."}, "[3]": {"system": "opioid-dependent participants", "assay": "Opiate withdrawal scales (COWS, SOWS, OOWS) in opioid-dependent participants", "assay_type": "in vivo, human", "protocol": "Patients were evaluated based on the Clinical Opiate Withdrawal Scale (COWS), Subjective Opiate Withdrawal Scale (SOWS), and Objective Opiate Withdrawal Scale (OOWS) scoring systems over the period of time between administration of noribogaine (or placebo) until resumption of OST. These scales are outlined in Guidelines for the Psychosocially Assisted Pharmacological Treatment of Opioid Dependence, World Health Organization, Geneva (2009), Annex 10, which is incorporated herein by reference in its entirety. The scales measure the intensity of withdrawal symptoms, based on clinical, subjective, and objective indicia."}, "[4]": {"system": "opioid-dependent participants", "assay": "QT interval evaluation in opioid-dependent participants", "assay_type": "in vivo, human", "conditions": "opioid-dependent patients, first 24 hours post administration, 60-180 mg", "protocol": "Patients' QT intervals were evaluated at regular time points throughout the study."}, "[5]": {"assay": "Pharmacokinetics of noribogaine in healthy volunteers, ascending single oral dose (plasma noribogaine and noribogaine glucuronide)", "conditions": "for CL/F: healthy male volunteers, fasted, n = 6, mean (SD); for mean AUC/24 hr / time after administration at which mean Cmax was observed / mean AUC/24: fasting"}, "[6]": {"conditions": "after adjusting for baseline differences, p>0.9"}, "[7]": {"conditions": "healthy volunteers, 3-60 mg single oral dose"}, "[8]": {"conditions": "single dose of 3 mg noribogaine free base"}, "[9]": {"conditions": "single dose of 10 mg noribogaine free base"}, "[10]": {"conditions": "single dose of 30 mg noribogaine free base"}, "[11]": {"conditions": "single dose of 60 mg noribogaine free base"}}, "data": [{"smiles": "CCC1CC2CC3c4[nH]c5ccc(O)cc5c4CCN(C2)C13", "note": "(centres unmarked) [Noribogaine]", "values": [{"measurement": "pupil diameter, each dose group compared with placebo by ANOVA", "setting": "[1]; [6]", "result": "no statistically significant differences"}, {"measurement": "pupillary constriction", "setting": "[1]; [7]", "result": "no evidence of pupillary constriction"}, {"measurement": "VAS pain scores upon hand removal, each dose group compared with placebo by ANOVA", "setting": "[2]; after adjusting for baseline differences, p=0.17", "result": "no statistically significant differences"}, {"measurement": "duration of hand immersion in ice water, each dose group compared with placebo by ANOVA", "setting": "[2]; [6]", "result": "no statistically significant differences"}, {"measurement": "analgesic effect in the cold pressor test", "setting": "[2]; [7]", "result": "no analgesic effect"}, {"measurement": "withdrawal symptoms (COWS, OOWS, SOWS), first six hours following dosing", "setting": "[3]; opioid-dependent patients, 120 mg", "result": "fewer withdrawal symptoms than the other patients"}, {"measurement": "withdrawal symptoms (COWS, OOWS, SOWS), noribogaine compared with placebo", "setting": "[3]; opioid-dependent patients, 60, 120 or 180 mg", "result": "Patients administered placebo generally experienced more withdrawal symptoms than patients who were administered noribogaine"}, {"measurement": "QT interval prolongation (ΔQTc1)", "setting": "[4]", "result": "dose-dependent increase in QT interval prolongation"}, {"measurement": "CL/F", "setting": "[5]; single oral 3 mg dose, plasma", "result": "41.4 (7.0) L/h"}, {"measurement": "CL/F", "setting": "[5]; single oral 10 mg dose, plasma", "result": "42.3 (12.0) L/h"}, {"measurement": "CL/F", "setting": "[5]; single oral 30 mg dose, plasma", "result": "46.9 (16.4) L/h"}, {"measurement": "CL/F", "setting": "[5]; single oral 60 mg dose, plasma", "result": "34.0 (11.4) L/h"}, {"measurement": "Cmax and AUC versus dose", "setting": "[5]; healthy volunteers, 3-60 mg single oral doses", "result": "increased linearly with dose"}, {"measurement": "time of peak concentrations after oral dosing", "setting": "[5]; healthy volunteers, across dose groups 3-60 mg", "result": "2 to 3", "unit": "h"}, {"measurement": "absorption", "setting": "[5]; healthy volunteers, oral dosing", "result": "rapidly absorbed"}, {"measurement": "Vd", "setting": "[5]; male, human, plasma, oral", "result": "1420 to 3090", "unit": "L"}, {"measurement": "half-life", "setting": "[5]; male, human, plasma, oral", "result": "28 to 50", "unit": "h"}, {"measurement": "AUC(0-inf)", "setting": "[5]; male, human, plasma, po, 3 mg", "result": 74.2, "unit": "ng·h/mL"}, {"measurement": "AUC(0-t)", "setting": "[5]; male, human, plasma, po, 3 mg", "result": 72.2, "unit": "ng·h/mL"}, {"measurement": "Cmax", "setting": "[5]; male, human, plasma, po, 3 mg", "result": 5.2, "unit": "ng/mL"}, {"measurement": "Tmax", "setting": "[5]; male, human, plasma, po, 3 mg", "result": 1.9, "unit": "h"}, {"measurement": "Vd/F", "setting": "[5]; male, human, plasma, po, 3 mg", "result": 2490, "unit": "L"}, {"measurement": "half-life", "setting": "[5]; male, human, plasma, po, 3 mg", "result": 40.9, "unit": "h"}, {"measurement": "AUC(0-inf)", "setting": "[5]; male, human, plasma, po, 10 mg", "result": 254, "unit": "ng·h/mL"}, {"measurement": "AUC(0-t)", "setting": "[5]; male, human, plasma, po, 10 mg", "result": 251, "unit": "ng·h/mL"}, {"measurement": "Cmax", "setting": "[5]; male, human, plasma, po, 10 mg", "result": 14.5, "unit": "ng/mL"}, {"measurement": "Tmax", "setting": "[5]; male, human, plasma, po, 10 mg", "result": 2.9, "unit": "h"}, {"measurement": "Vd/F", "setting": "[5]; male, human, plasma, po, 10 mg", "result": 3090, "unit": "L"}, {"measurement": "half-life", "setting": "[5]; male, human, plasma, po, 10 mg", "result": 49.2, "unit": "h"}, {"measurement": "AUC(0-inf)", "setting": "[5]; male, human, plasma, po, 30 mg", "result": 700, "unit": "ng·h/mL"}, {"measurement": "AUC(0-t)", "setting": "[5]; male, human, plasma, po, 30 mg", "result": 678, "unit": "ng·h/mL"}, {"measurement": "Cmax", "setting": "[5]; male, human, plasma, po, 30 mg", "result": 55.9, "unit": "ng/mL"}, {"measurement": "Tmax", "setting": "[5]; male, human, plasma, po, 30 mg", "result": 1.8, "unit": "h"}, {"measurement": "Vd/F", "setting": "[5]; male, human, plasma, po, 30 mg", "result": 1850, "unit": "L"}, {"measurement": "half-life", "setting": "[5]; male, human, plasma, po, 30 mg", "result": 27.6, "unit": "h"}, {"measurement": "AUC(0-inf)", "setting": "[5]; male, human, plasma, po, 60 mg", "result": 1960, "unit": "ng·h/mL"}, {"measurement": "AUC(0-t)", "setting": "[5]; male, human, plasma, po, 60 mg", "result": 1940, "unit": "ng·h/mL"}, {"measurement": "Cmax", "setting": "[5]; male, human, plasma, po, 60 mg", "result": 116, "unit": "ng/mL"}, {"measurement": "Tmax", "setting": "[5]; male, human, plasma, po, 60 mg", "result": 2.4, "unit": "h"}, {"measurement": "Vd/F", "setting": "[5]; male, human, plasma, po, 60 mg", "result": 1420, "unit": "L"}, {"measurement": "half-life", "setting": "[5]; male, human, plasma, po, 60 mg", "result": 29.1, "unit": "h"}, {"measurement": "Cmax", "setting": "[5]; male, human, serum, oral, 3 mg", "result": 5.2, "unit": "ng/mL"}, {"measurement": "Cmax", "setting": "[5]; male, human, serum, oral, 10 mg", "result": 14.5, "unit": "ng/mL"}, {"measurement": "Cmax", "setting": "[5]; male, human, serum, oral, 30 mg", "result": 55.9, "unit": "ng/mL"}, {"measurement": "Cmax", "setting": "[5]; male, human, serum, oral, 60 mg", "result": 116, "unit": "ng/mL"}, {"measurement": "mean AUC/24 hr", "setting": "[5]; [8]", "result": 3.1, "unit": "ng/mL"}, {"measurement": "time after administration at which mean Cmax was observed", "setting": "[5]; [8]", "result": 1.9, "unit": "h"}, {"measurement": "mean AUC/24 hr", "setting": "[5]; [9]", "result": 10.6, "unit": "ng/mL"}, {"measurement": "time after administration at which mean Cmax was observed", "setting": "[5]; [9]", "result": 2.9, "unit": "h"}, {"measurement": "mean AUC/24", "setting": "[5]; [10]", "result": 29.2, "unit": "ng/mL"}, {"measurement": "time after administration at which mean Cmax was observed", "setting": "[5]; [10]", "result": 1.75, "unit": "h"}, {"measurement": "mean AUC/24", "setting": "[5]; [11]", "result": 61, "unit": "ng/mL"}, {"measurement": "time after administration at which mean Cmax was observed", "setting": "[5]; [11]", "result": 1.75, "unit": "h"}]}]}
